Key:
LAT1-Tet/HEK293 cells = experiment: Uptake versus LAT1 expression level (Dox-induced) in LAT1-Tet/HEK293 cells; type: cell-based; conditions: collection 30 min after treatment
Experimental: Each cell line was seeded in 24 wells at 1 × 10^5 cells/mL and allowed to become sub-confluent on the day of the experiment. Cells were washed with PBS (-) (Fujifilm Wako Pure Chemical, Osaka, Japan) prior to the addition of the compound, which was then replaced with uptake buffer. After treating the cells with the same dose, they were collected at predetermined time points. The cell dose was measured using a γ-counter (Wizard^2 2480; PerkinElmer, Waltham, MA, USA), and the protein content of the sample was determined. Protein content was measured using the BCA method, and the dose was corrected using the protein content (Protein Assay BCA kit, Fujifilm Wako Pure Chemical).
Figure 2 Comparison of uptake between the labeled compounds. (A) Relation between uptake ratio and LAT1 expression level. Uptake ratios were compared between LAT1-Tet/HEK293 cells. The Y-axis represents the uptake ratio, and the X-axis is concentration of Doxycycline (Dox) (TaKaRa Bio, Shiga, Japan). The collection time was 30 min after treatment. The expression of LAT1 increased with increasing amounts of Dox. (B) Comparison of uptake in PANC-1 cell line. The collection times were 0.5, 1, 5 and 10 min after treatment.
The PANC-1 cell line was obtained from the RIKEN Cell Bank and maintained in RPMI 1640 medium (Fujifilm Wako Pure Chemical, Osaka, Japan) supplemented with 10% inactivated fetal bovine serum (Thermo Fisher Scientific, Waltham, MA, USA). Mock/HEK293, LAT1/HEK293, and LAT2/HEK203 cells were kindly provided by Dr. Kanai. Cell lines controlling LAT1 expression were constructed using the Tet-on system. HEK293 cells were obtained from the RIKEN Cell Bank and maintained in E-MEM (Fujifilm Wako Pure Chemical) supplemented with 10% inactivated fetal bovine serum (Thermo Fisher Scientific) and non-essential amino acids (Fujifilm Wako Pure Chemical). The expression vectors were purchased from VectorBuilder, Inc. (Kanagawa, Japan). The purified viral particle genes were transfected into HEK293 cells. Drug selection and cloning of the cell line (Tet-LAT1/HEK293) were performed. […]

PANC-1 tumor model = experiment: Tissue distribution in nude mice (PANC-1 tumor model); type: in vivo, BALB/c nu/nu mice; conditions: nude mice (PANC-1 tumor model)
Experimental: BALB/c nu/nu mice (male, 5 weeks old) were purchased from Japan SLC (Shizuoka, Japan) and subcutaneously transplanted at a density of 1 × 10^7 cells/mouse. PANC-1 cells that reached the logarithmic growth phase were transplanted subcutaneously by mixing a 1 × 10^8 cells/mL cell suspension with an equivalent volume of Matrigel (Corning, Corning, NY, USA) to obtain 1 × 10^7 cells per mouse. Experiments were performed after the size of the transplanted tumor had exceeded 50 mm^3. The doses in the distribution experiments were as follows: ^211At-AAMT-OH-L (0.501 ± 0.011 MBq/mouse, 19.91 ± 0.59 g, n = 3) and ^211At-AAMT-O-Me-L (0.384 ± 0.003 MBq/mouse, 19.18 ± 0.38 g, n = 6 for Table 3), ^211At-AAMT-O-Me-L (158.10 ± 2.94 kBq/mouse, 19.27 ± 0.64 g, n = 6) and ^211At-AAMT-O-Me-D (135.08 ± 2.35 kBq/mouse, 18.64 ± 0.97 g, n = 6), ^211At-AAMT-O-Et-L (0.682 ± 0.011 MBq/mouse, 20.25 ± 1.41 g, n = 6), ^211At-AAMT-O-Pr-L (0.927 ± 0.020 MBq/mouse, 21.74 ± 0.37 g, n = 6).

[1] = Tissue distribution in ICR mice (normal animals); type: in vivo
Excerpt: ICR mice (male, 5 weeks old) were purchased from Japan SLC (Shizuoka, Japan) and acclimated for one week prior to use. The doses in the distribution experiments were as follows: ^211At-AAMT-O-Me-L (0.407 ± 0.005 MBq/mouse, 31.64 ± 0.76 g, n = 6), ^211At-AAMT-O-Me-D (0.351 ± 0.004 MBq/mouse, 31.44 ± 0.94 g, n = 6), ^211At-AAMT-O-Et-L (0.685 ± 0.010 MBq/mouse, 24.14 ± 3.31 g, n = 6), ^211At-AAMT-O-Pr-L (1.09 ± 0.06 MBq/mouse, 26.33 ± 0.39 g, n = 6)

Q: For `CCCOc1ccc(C[C@](C)(N)C(=O)O)cc1[211At]` [^211At-AAMT-O-Pr-L], which “Uptake ratio versus LAT1 expression (doxycycline concentration)” value (LAT1-Tet/HEK293 cells) is on record?
A: lower cellular uptake when LAT1 expression increased

Q: And the “Tissue distribution, Bladder” value (PANC-1 tumor model; 10 min after injection)?
A: 18.24 ± 4.50 %ID/g

Q: What about the “Tissue distribution, Blood” value (PANC-1 tumor model; 10 min after injection) of the same molecule?
A: 4.33 ± 0.45 %ID/g

Q: What about the “Tissue distribution, Bone” value (PANC-1 tumor model; 10 min after injection) of the same molecule?
A: 3.50 ± 0.13 %ID/g

Q: And the “Tissue distribution, Brain” value (PANC-1 tumor model; 10 min after injection)?
A: 1.01 ± 0.04 %ID/g

Q: And the “Tissue distribution, Cecum” value (PANC-1 tumor model; 10 min after injection)?
A: 3.35 ± 0.30 %ID/g

Q: What about the “Tissue distribution, Colon” value (PANC-1 tumor model; 10 min after injection) of the same molecule?
A: 4.56 ± 0.31 %ID/g

Q: What about the “Tissue distribution, Heart” value (PANC-1 tumor model; 10 min after injection) of the same molecule?
A: 9.66 ± 0.87 %ID/g

Q: What about the “Tissue distribution, Kidney” value (PANC-1 tumor model; 10 min after injection) of the same molecule?
A: 10.29 ± 0.97 %ID/g

Q: What about the “Tissue distribution, Liver” value (PANC-1 tumor model; 10 min after injection) of the same molecule?
A: 3.67 ± 0.41 %ID/g

Q: What about the “Tissue distribution, Lung” value (PANC-1 tumor model; 10 min after injection) of the same molecule?
A: 18.16 ± 1.88 %ID/g

Q: And the “Tissue distribution, Pancreas” value (PANC-1 tumor model; 10 min after injection)?
A: 10.85 ± 1.53 %ID/g

Q: And the “Tissue distribution, Salivary glands” value (PANC-1 tumor model; 10 min after injection)?
A: 11.89 ± 0.06 %ID/g

Q: And the “Tissue distribution, Small intestine” value (PANC-1 tumor model; 10 min after injection)?
A: 6.80 ± 0.63 %ID/g

Q: What about the “Tissue distribution, Spleen” value (PANC-1 tumor model; 10 min after injection) of the same molecule?
A: 11.84 ± 1.91 %ID/g

Q: And the “Tissue distribution, Stomach” value (PANC-1 tumor model; 10 min after injection)?
A: 7.31 ± 0.30 %ID/g

Q: And the “Tissue distribution, Testis” value (PANC-1 tumor model; 10 min after injection)?
A: 3.54 ± 0.28 %ID/g

Q: And the “Tissue distribution, Thyroid” value (PANC-1 tumor model; 10 min after injection)?
A: 9.74 ± 0.39 %ID/g

Q: What about the “Tissue distribution, Tumor” value (PANC-1 tumor model; 10 min after injection) of the same molecule?
A: 5.91 ± 0.27 %ID/g

Q: What about the “Tissue distribution, Bladder” value (PANC-1 tumor model; 1 h after injection) of the same molecule?
A: 18.00 ± 0.97 %ID/g

Q: What about the “Tissue distribution, Blood” value (PANC-1 tumor model; 1 h after injection) of the same molecule?
A: 3.09 ± 0.25 %ID/g

Q: And the “Tissue distribution, Bone” value (PANC-1 tumor model; 1 h after injection)?
A: 2.03 ± 0.45 %ID/g

Q: What about the “Tissue distribution, Brain” value (PANC-1 tumor model; 1 h after injection) of the same molecule?
A: 0.79 ± 0.13 %ID/g

Q: What about the “Tissue distribution, Cecum” value (PANC-1 tumor model; 1 h after injection) of the same molecule?
A: 3.07 ± 1.06 %ID/g

Q: And the “Tissue distribution, Colon” value (PANC-1 tumor model; 1 h after injection)?
A: 3.27 ± 0.46 %ID/g

Q: And the “Tissue distribution, Heart” value (PANC-1 tumor model; 1 h after injection)?
A: 5.39 ± 1.06 %ID/g

Q: What about the “Tissue distribution, Kidney” value (PANC-1 tumor model; 1 h after injection) of the same molecule?
A: 5.76 ± 0.67 %ID/g

Q: What about the “Tissue distribution, Liver” value (PANC-1 tumor model; 1 h after injection) of the same molecule?
A: 2.41 ± 0.24 %ID/g

Q: What about the “Tissue distribution, Lung” value (PANC-1 tumor model; 1 h after injection) of the same molecule?
A: 14.15 ± 1.78 %ID/g

Q: What about the “Tissue distribution, Pancreas” value (PANC-1 tumor model; 1 h after injection) of the same molecule?
A: 3.54 ± 0.49 %ID/g

Q: And the “Tissue distribution, Salivary glands” value (PANC-1 tumor model; 1 h after injection)?
A: 20.98 ± 3.26 %ID/g

Q: What about the “Tissue distribution, Small intestine” value (PANC-1 tumor model; 1 h after injection) of the same molecule?
A: 5.08 ± 0.53 %ID/g

Q: What about the “Tissue distribution, Spleen” value (PANC-1 tumor model; 1 h after injection) of the same molecule?
A: 17.42 ± 6.48 %ID/g

Q: What about the “Tissue distribution, Testis” value (PANC-1 tumor model; 1 h after injection) of the same molecule?
A: 3.56 ± 0.41 %ID/g

Q: And the “Tissue distribution, Thyroid” value (PANC-1 tumor model; 1 h after injection)?
A: 16.44 ± 1.16 %ID/g

Q: What about the “Tissue distribution, Tumor” value (PANC-1 tumor model; 1 h after injection) of the same molecule?
A: 9.45 ± 0.82 %ID/g

Q: And the “Tissue distribution, Bladder” value ([1]; 1 h after injection)?
A: 20.82 ± 5.36 %ID/g

Q: And the “Tissue distribution, Blood” value ([1]; 1 h after injection)?
A: 1.77 ± 0.15 %ID/g

Q: What about the “Tissue distribution, Bone” value ([1]; 1 h after injection) of the same molecule?
A: 1.79 ± 0.12 %ID/g

Q: What about the “Tissue distribution, Brain” value ([1]; 1 h after injection) of the same molecule?
A: 0.25 ± 0.02 %ID/g

Q: And the “Tissue distribution, Cecum” value ([1]; 1 h after injection)?
A: 1.49 ± 0.14 %ID/g

Q: And the “Tissue distribution, Colon” value ([1]; 1 h after injection)?
A: 1.35 ± 0.07 %ID/g

Q: And the “Tissue distribution, Heart” value ([1]; 1 h after injection)?
A: 3.14 ± 0.20 %ID/g

Q: And the “Tissue distribution, Kidney” value ([1]; 1 h after injection)?
A: 2.25 ± 0.19 %ID/g

Q: And the “Tissue distribution, Liver” value ([1]; 1 h after injection)?
A: 1.18 ± 0.08 %ID/g

Q: And the “Tissue distribution, Lung” value ([1]; 1 h after injection)?
A: 6.54 ± 0.34 %ID/g

Q: And the “Tissue distribution, Pancreas” value ([1]; 1 h after injection)?
A: 2.55 ± 0.60 %ID/g

Q: What about the “Tissue distribution, Salivary glands” value ([1]; 1 h after injection) of the same molecule?
A: 14.23 ± 3.16 %ID/g

Q: What about the “Tissue distribution, Small intestine” value ([1]; 1 h after injection) of the same molecule?
A: 1.83 ± 0.23 %ID/g

Q: And the “Tissue distribution, Spleen” value ([1]; 1 h after injection)?
A: 4.11 ± 0.11 %ID/g

Q: What about the “Tissue distribution, Stomach” value ([1]; 1 h after injection) of the same molecule?
A: 13.55 ± 2.66 %ID/g

Q: And the “Tissue distribution, Testis” value ([1]; 1 h after injection)?
A: 3.66 ± 0.14 %ID/g

Q: What about the “Tissue distribution, Thymus” value ([1]; 1 h after injection) of the same molecule?
A: 2.03 ± 0.28 %ID/g

Q: What about the “Tissue distribution, Thyroid” value ([1]; 1 h after injection) of the same molecule?
A: 23.08 ± 3.56 %ID/g

Q: And the “Tissue distribution, Bladder” value ([1]; 3 h after injection)?
A: 5.37 ± 0.73 %ID/g

Q: What about the “Tissue distribution, Blood” value ([1]; 3 h after injection) of the same molecule?
A: 1.30 ± 0.12 %ID/g

Q: And the “Tissue distribution, Bone” value ([1]; 3 h after injection)?
A: 1.32 ± 0.12 %ID/g

Q: And the “Tissue distribution, Brain” value ([1]; 3 h after injection)?
A: 0.16 ± 0.01 %ID/g

Q: What about the “Tissue distribution, Cecum” value ([1]; 3 h after injection) of the same molecule?
A: 1.13 ± 0.25 %ID/g

Q: What about the “Tissue distribution, Colon” value ([1]; 3 h after injection) of the same molecule?
A: 1.29 ± 0.25 %ID/g

Q: What about the “Tissue distribution, Heart” value ([1]; 3 h after injection) of the same molecule?
A: 2.16 ± 0.18 %ID/g

Q: And the “Tissue distribution, Kidney” value ([1]; 3 h after injection)?
A: 1.93 ± 0.29 %ID/g

Q: And the “Tissue distribution, Liver” value ([1]; 3 h after injection)?
A: 0.82 ± 0.14 %ID/g

Q: What about the “Tissue distribution, Lung” value ([1]; 3 h after injection) of the same molecule?
A: 5.09 ± 0.43 %ID/g

Q: And the “Tissue distribution, Pancreas” value ([1]; 3 h after injection)?
A: 1.60 ± 0.31 %ID/g

Q: What about the “Tissue distribution, Salivary glands” value ([1]; 3 h after injection) of the same molecule?
A: 11.39 ± 0.33 %ID/g

Q: What about the “Tissue distribution, Small intestine” value ([1]; 3 h after injection) of the same molecule?
A: 1.92 ± 0.12 %ID/g

Q: What about the “Tissue distribution, Spleen” value ([1]; 3 h after injection) of the same molecule?
A: 3.56 ± 0.54 %ID/g

Q: What about the “Tissue distribution, Stomach” value ([1]; 3 h after injection) of the same molecule?
A: 32.05 ± 3.31 %ID/g

Q: And the “Tissue distribution, Testis” value ([1]; 3 h after injection)?
A: 2.34 ± 0.42 %ID/g

Q: And the “Tissue distribution, Thymus” value ([1]; 3 h after injection)?
A: 1.76 ± 0.25 %ID/g

Q: And the “Tissue distribution, Thyroid” value ([1]; 3 h after injection)?
A: 24.75 ± 3.77 %ID/g
